The test system of assay [1] is ovalbumin sensitised guinea pigs. As to the kind of experiment: Inhibition of eosinophil infiltration and hyper-reactivity in the guinea pig. In kind it is in vivo. The note with it: dose 200 μg/kg body weight i.t., positive control. As for the experimental part:
(3) Inhibition of Eosinophil Infiltration and Hyper-Reactivity in the Guinea Pig
In a method based on that described by Danahay et al., 1997, ovalbumin sensitised guinea pigs were dosed with mepyramine (30 mg kg^−1 ip) to protect against anaphylactic bronchospasm. Test compounds, dissolved in 0.9% saline, were given by the inhaled route (30 minutes breathing of an aerosol of the compound) or the intra-tracheal route, 30 minutes before and 6 hours after ovalbumin challenge (10 minutes breathing of an aerosol generated from a 0.5% solution of ovalbumin). Hyper-reactivity of the airways to the thromboxane mimetic U46619, was measured 24 hours after ovalbumin challenge in un-restrained animals using a whole body plethysmograph (Buxco Ltd., USA). The guinea pigs were then sacrificed and the lungs lavaged. Total and differential leukocyte counts were then obtained for the bronchoalveolar lavage fluid and the percentage reduction in eosinophil accumulation determined (Sanjar et al., 1992). Dexamethasone (200 μg kg^−1 i.t) was used as a positive control. Data was presented as the inhibitory effect of the specified dose expressed as a percentage of the vehicle control response.

The target in assay [2] is T1, integrin VLA-4, expressed on the Jurkat J6 (human lymphoblast cell line) cell membrane with VCAM-1 (Homo sapiens, UniProt P05556+P13612).
T1 construct: integrin VLA-4, expressed on the Jurkat J6 (human lymphoblast cell line) cell membrane; endogenous in cells; host or cells: Jurkat J6 cells (integrin). zzVCAM-1 was made in house in Drosophila melanogaster S2 cells
T1 sequence (P13612 34-1032): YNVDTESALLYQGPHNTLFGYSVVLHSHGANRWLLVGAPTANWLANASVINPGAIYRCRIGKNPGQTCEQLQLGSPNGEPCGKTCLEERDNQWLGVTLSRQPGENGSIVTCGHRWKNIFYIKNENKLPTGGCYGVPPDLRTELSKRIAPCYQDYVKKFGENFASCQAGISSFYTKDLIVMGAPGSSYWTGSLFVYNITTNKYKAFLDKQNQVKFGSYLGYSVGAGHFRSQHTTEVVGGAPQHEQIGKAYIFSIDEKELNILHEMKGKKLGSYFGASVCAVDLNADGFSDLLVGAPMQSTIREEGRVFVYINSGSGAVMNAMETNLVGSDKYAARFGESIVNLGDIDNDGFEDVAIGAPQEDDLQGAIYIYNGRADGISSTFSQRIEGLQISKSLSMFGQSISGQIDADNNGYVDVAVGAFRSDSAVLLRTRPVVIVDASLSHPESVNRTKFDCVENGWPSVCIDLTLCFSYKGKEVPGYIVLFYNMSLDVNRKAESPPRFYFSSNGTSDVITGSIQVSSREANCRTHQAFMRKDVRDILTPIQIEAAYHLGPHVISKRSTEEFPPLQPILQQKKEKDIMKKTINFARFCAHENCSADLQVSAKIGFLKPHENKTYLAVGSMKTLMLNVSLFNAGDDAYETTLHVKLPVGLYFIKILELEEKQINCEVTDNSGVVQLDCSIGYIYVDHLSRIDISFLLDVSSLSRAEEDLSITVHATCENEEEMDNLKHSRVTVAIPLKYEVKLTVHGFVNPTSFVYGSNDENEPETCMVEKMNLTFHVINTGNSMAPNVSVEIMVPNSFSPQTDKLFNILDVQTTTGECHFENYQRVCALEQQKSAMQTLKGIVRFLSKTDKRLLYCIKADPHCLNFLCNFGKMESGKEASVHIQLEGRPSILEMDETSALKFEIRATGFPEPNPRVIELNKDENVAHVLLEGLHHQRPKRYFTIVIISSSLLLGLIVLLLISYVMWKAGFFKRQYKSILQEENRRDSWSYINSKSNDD
T1 sequence (P05556 21-798): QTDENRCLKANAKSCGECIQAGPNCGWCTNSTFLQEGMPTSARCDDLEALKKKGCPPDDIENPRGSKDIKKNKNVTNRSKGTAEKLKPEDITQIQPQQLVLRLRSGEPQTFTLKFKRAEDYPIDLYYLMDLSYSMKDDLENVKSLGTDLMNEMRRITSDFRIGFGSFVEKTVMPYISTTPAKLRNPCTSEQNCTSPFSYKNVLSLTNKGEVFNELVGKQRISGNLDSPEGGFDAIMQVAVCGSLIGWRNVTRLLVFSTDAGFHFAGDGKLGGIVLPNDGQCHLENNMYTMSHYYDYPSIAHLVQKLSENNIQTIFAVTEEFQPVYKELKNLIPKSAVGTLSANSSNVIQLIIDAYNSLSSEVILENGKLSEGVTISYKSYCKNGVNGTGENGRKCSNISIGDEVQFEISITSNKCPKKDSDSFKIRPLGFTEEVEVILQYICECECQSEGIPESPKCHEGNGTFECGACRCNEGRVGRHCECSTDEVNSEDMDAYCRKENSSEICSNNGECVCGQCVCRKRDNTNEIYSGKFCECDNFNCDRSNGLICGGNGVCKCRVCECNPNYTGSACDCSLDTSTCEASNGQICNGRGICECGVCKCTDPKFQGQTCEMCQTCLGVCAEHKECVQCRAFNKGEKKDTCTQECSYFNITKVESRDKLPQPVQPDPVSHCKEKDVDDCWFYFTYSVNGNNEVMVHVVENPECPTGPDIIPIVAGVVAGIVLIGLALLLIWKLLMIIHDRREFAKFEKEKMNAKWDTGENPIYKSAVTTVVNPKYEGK
Nature of the assay: Jurkat J6/VCAM-1 adhesion assay. The following applies: Jurkat J6 cell adhesion to VCAM-1, 1 mM MnCl2; mean of n experiments. Type of assay: cell-based. As for the experimental part:
(1) Jurkat J6/VCAM-1 Adhesion Assay
This assay was used to investigate the interaction of the integrin VLA-4, expressed on the Jurkat J6 (human lymphoblast cell line) cell membrane with VCAM-1. Polystyrene 96-well microtitre plates were coated with human immunoglobulin G (IgG; Sigma Chemicals, UK, Product No. 14506) at a concentration of 0.05 mg ml^−1 in bicarbonate buffer (36 mM NaHCO3 and 22 mM Na2CO3, prepared in Dulbecco's phosphate buffered saline at pH 9.8 (PBS); Sigma Chemicals, UK, Product No. 14190-094) for 2 hours at 37° C. This solution was then aspirated and the plates were washed twice with PBS.
VCAM-1 was prepared by cloning its constituent seven domains into a Drosophila expression system with a zz (Protein A) tag. This zzVCAM-1 was then expressed from Drosophila melanogaster S2 cell culture, induced with copper. Protease inhibitors were added and the culture supernatant was clarified either by filtration through a 0.2 μm filter or by centrifugation. The zzVCAM-1 was then purified from this clarified medium using an IgG agarose column, equilibrated with either 20 mM sodium phosphate pH 7.2 alone or in the presence of 0.5M sodium chloride. Elution of zzVCAM-1 from the column was mediated using 3M ammonium thiocyanate, which was subsequently removed using a G25 desalting column, equilibrated with 20 mM sodium phosphate, pH 7.2. The purified zzVCAM-1 was then concentrated to a small volume (Amicon stirred cell concentrators) until a concentration of 62.5 ng ml^−1 was obtained, calculated using the extinction coefficient value.
This solution of zzVCAM-1 was then incubated overnight at 4° C. in the IgG coated microtitre plates with 3% bovine serum albumin (BSA) in PBS, followed by aspiration and two further washes with PBS. A concentration of the Jurkat J6 cells (6×10^6 cels ml^−1), grown in cell media RPMI 1640 (HyClone Ltd, Product No. B-9106-L) supplemented with 10% heat inactivated fetal calf serum (FCS; Gibco BRL, Product No. 10099-075) and 2 mM L-glutamine, were labelled with 10 μM of the fluorescent dye, 2′, 7′-bis(2-carboxyethyl)-5-(e6)-carboxyfluorescein acetoxymethyl ester (BCECF-AM; Molecular Probes Inc, Product No. B-1150) at 37° C. for 10 minutes. The excess dye was then removed by centrifugation at 500×g for 5 minutes and the cells were resuspended at a concentration of 1.2×10^7 cells ml^−1 in Hank's balanced salt solution (HBSS; Gibco BRL, Product No. 14190-094).
Equal volumes of compounds (dissolved in an appropriate solvent and diluted in HBSS containing 1 mM MnCl2) and the labelled Jurkat J6 cells, were added to the VCAM-1 coated plates and adhesion was allowed to proceed for 30 minutes at 37° C. Non, or loosely adhered cells, were removed by inversion of the plate and blotted with tissue paper. Two washes with PBS and further blotting were then performed, before the addition of 2% detergent (Triton-X®; Sigma Chemicals UK, Product No. X100). Counting was undertaken in a Wallac Viktor™ Fluorimeter, where low fluorescence values were indicative of compounds which had inhibited adhesion. All samples were assayed in singlicate and the following four parameter curve fit, shown by Equation (I) was applied: [formula]
Where a is the minimum, b is the Hill slope, c is the IC50 and d is the maximum. (Maximum and minimum values are those compared to adhesion in the absence of compound and in the presence of the dipotassium salt of 2 mM EDTA; Sigma Chemicals, UK, Product No. ED2P). Data is presented as the mean pIC50 with the standard error of the mean of n experiments.

As for `C[C@@H]1C[C@H]2[C@@H]3CCC4=CC(=O)C=C[C@]4(C)[C@@]3(F)[C@@H](O)C[C@]2(C)[C@@]1(O)C(=O)CO` [Dexamethasone, reference compound], the inhibition in vivo at 0.2 mg/kg in assay [1] (Cavia porcellus, Eosinophil, inhaled or nasal, 24 h, airway hyper-reactivity to U46619) is 80%. Further, the “% Inhibition Eosinophil Accumulation” value in assay [1] is 55%.
As to `CC(C)C[C@H](NC(=O)COc1ccccc1C(C)(C)C)C(=O)N[C@@H](Cc1ccc(OC(=O)N2CCC(C(N)=O)CC2)cc1)C(=O)O` [Example 33, (2S)-3-[4-({[4-(Aminocarbonyl)-1-piperidinyl]carbonyl}oxy)phenyl]-2-{[(2S)-2-({2-[2-(tert-butyl)phenoxy]acetyl}amino)-4-methylpentanoyl]amino}propanoic acid], the half-inhibitory concentration (IC50) in assay [2] was 3.47 nM.
`CC(C)C[C@H](NC(=O)COc1ccccc1I)C(=O)N[C@@H](Cc1ccc(OC(=O)N2CCC(C(N)=O)CC2)cc1)C(=O)O` [Example 26, (2S)-3-[4-({[4-(Aminocarbonyl)-1-piperidinyl]carbonyl}oxy)phenyl]-2-[((2S)-2-{[2-(2-iodophenoxy)acetyl]amino}-4-methylpentanoyl)amino]propanoic acid] gave an IC50 in assay [2] of 2.95 nM. This IC50 and that of the molecule before are within 1.5-fold of each other.
In turn, `CC(C)C[C@H](NC(=O)COc1ccc(C(=O)N2CCCCC2)cc1)C(=O)N[C@@H](Cc1ccc(OC(=O)N2CCC(C(N)=O)CC2)cc1)C(=O)O` [Example 5, (2S)-3-[4-({[4-(Aminocarbonyl)-1-piperidinyl]carbonyl}oxy)phenyl]-2-{[(2S)-4-methyl-2-({2-[4-(1-piperidinylcarbonyl)phenoxy]acetyl}amino)pentanoyl]amino}propanoic acid] showed a concentration for half-maximal inhibition (IC50) in assay [2] of 7.76 nM.
`CC(C)C[C@H](NC(=O)COc1ccccc1I)C(=O)N[C@@H](Cc1ccc(OC(=O)N2CCC(NC(=O)Cc3ccccc3)CC2)cc1)C(=O)O` [Example 14, (2S)-2-[((2S)-2-{[2-(2-Iodophenoxy)acetyl]amino}-4-methylpentanoyl)amino]-3-{4-[({4-[(2-phenylacetyl)amino]-1-piperidinyl}carbonyl)oxy]phenyl}propanoic acid]: in assay [2], the half-inhibitory concentration (IC50) was 16.6 nM.
`CC(C)C[C@H](NC(=O)COc1ccc2ccccc2c1Br)C(=O)N[C@@H](Cc1ccc(OC(=O)N2CCOCC2)cc1)C(=O)O` [Example 38, (2S)-2-{[(2S)-2-({2-[(1-Bromo-2-naphthyl)oxy]acetyl}amino)-4-methylpentanoyl]amino}-3-{4-[(4-morpholinylcarbonyl)oxy]phenyl}propanoic acid] showed an IC50 in assay [2] of 15.5 nM.
On the same count and under the same terms, as for `CC(C)C[C@H](NC(=O)COc1ccccc1I)C(=O)N[C@@H](Cc1ccc(OC(=O)N2CCN(C(=O)c3ccccc3)CC2)cc1)C(=O)O` [Example 19, (2S)-3-(4-{[(4-Benzoyl-1-piperazinyl)carbonyl]oxy}phenyl)-2-[((2S)-2-{[2-(2-iodophenoxy)acetyl]amino}-4-methylpentanoyl)amino]propanoic acid], the figure is 7.59 nM.
Still for that read-out and setting: as for `CC(C)C[C@H](NC(=O)COc1ccc(Cl)cc1Cl)C(=O)N[C@@H](Cc1ccc(OC(=O)N2CCN(C(=O)c3ccccc3)CC2)cc1)C(=O)O` [Example 22, (2S)-3-(4-{[(4-Benzoyl-1-piperazinyl)carbonyl]oxy}phenyl)-2-[((2S)-2-{[2-(2,4-dichlorophenoxy)acetyl]amino}-4-methylpentanoyl)amino]propanoic acid], the figure is 22.4 nM; as for `CC(C)C[C@H](NC(=O)COc1ccccc1C(C)(C)C)C(=O)N[C@@H](Cc1ccc(OC(=O)N2CCC(NC(=O)C(C3CCCCC3)C3CCCCC3)CC2)cc1)C(=O)O` [Example 53, (2S)-2-{[(2S)-2-({2-[2-(Tert-butyl)phenoxy]acetyl}amino)-4-methylpentanoyl]amino}-3-{4-[({4-[(2,2-dicyclohexylacetyl)amino]-1-piperidinyl}carbonyl)oxy]phenyl}propanoic acid], 155 nM.
Still for that read-out and setting: as for `CC(C)C[C@H](NC(=O)COc1ccc(C(=O)N2CCCCC2)cc1)C(=O)N[C@@H](Cc1ccc(OC(=O)N2CCC(NC(=O)C(C3CCCCC3)C3CCCCC3)CC2)cc1)C(=O)O` [Example 3, (2S)-3-{4-[({4-[(2,2-Dicyclohexylacetyl)amino]-1-piperidinyl}carbonyl)oxy]phenyl}-2-{[(2S)-4-methyl-2-({2-[4-(1-piperidinylcarbonyl)phenoxy]acetyl}amino)pentanoyl]amino}propanoic acid], the figure is 41.7 nM; as for `CC(C)C[C@H](NC(=O)COc1ccccc1C1CCCCC1)C(=O)N[C@@H](Cc1ccc(OC(=O)N2CCC(NC(=O)Cc3ccccc3)CC2)cc1)C(=O)O` [Example 55, (2S)-2-[((2S)-2-{[2-(2-Cyclohexylphenoxy)acetyl]amino}-4-methylpentanoyl)amino]-3-{4-[({4-[(2-phenylacetyl)amino]-1-piperidinyl}carbonyl)oxy]phenyl}propanoic acid], 61.7 nM.
Consider `CC(C)C[C@H](NC(=O)COc1ccccc1C(=O)c1ccccc1)C(=O)N[C@@H](Cc1ccc(OC(=O)N2CCC(NC(=O)Cc3ccc(Cl)cc3)CC2)cc1)C(=O)O` [Example 46, (2S)-2-[((2S)-2-{[2-(2-Benzoylphenoxy)acetyl]amino}-4-methylpentanoyl)amino]-3-(4-{[(4-{[2-(4-chlorophenyl)acetyl]amino}-1-piperidinyl)carbonyl]oxy}phenyl)propanoic acid], for which the 50% inhibitory concentration (IC50) in assay [2] is 43.7 nM. This IC50 and that of the molecule before are within 1.5-fold of each other.
The same measure, in the same setting: as for `CC(C)C[C@H](NC(=O)COc1ccccc1C(C)(C)C)C(=O)N[C@@H](Cc1ccc(OC(=O)N2CCN(C(=O)c3ccco3)CC2)cc1)C(=O)O` [Example 42, (2S)-2-{[(2S)-2-({2-[2-(Tert-butyl)phenoxy]acetyl}amino)-4-methylpentanoyl]amino}-3-[4-({[4-(2-furoyl)-1-piperazinyl]carbonyl}oxy)phenyl]propanoic acid], the figure is 11 nM; as for `CC(C)C[C@H](NC(=O)COc1ccccc1C(C)(C)C)C(=O)N[C@@H](Cc1ccc(OC(=O)N2CCC(NC(=O)Cc3ccc(Cl)cc3)CC2)cc1)C(=O)O` [Example 48, (2S)-2-{[(2S)-2-({2-[2-(Tert-butyl)phenoxy]acetyl}amino)-4-methylpentanoyl]amino}-3-(4-{[(4-{[2-(4-chlorophenyl)acetyl]amino}-1-piperidinyl)carbonyl]oxy}phenyl)propanoic acid], 41.7 nM.
Same read-out and setting: as for `CC(C)C[C@H](NC(=O)c1cccc2c1oc1ccccc12)C(=O)N[C@@H](Cc1ccc(OC(=O)N2CCOCC2)cc1)C(=O)O` [Example 10, (2S)-2-({(2S)-2-[(Dibenzo[b,d]furan-4-ylcarbonyl)amino]-4-methylpentanoyl}amino)-3-{4-[(4-morpholinylcarbonyl)oxy]phenyl}propanoic acid], the figure is 8.32 nM.
